Like-named read-outs stand apart in the source and are kept apart here.

The test system of assay [1] is rhythmic bladder-voiding contractions in anaesthetised rats. The experiment in a line: Rhythmic bladder-voiding contractions induced by bladder filling in anaesthetised rats. It is filed as in vivo, rat. Particulars: intravenous administration; for ED50: Rattus norvegicus. On the procedure:
Female Sprague-Dawley rats weighing 225-275 g (Crl: CD® (SD) IGS BR, Charles River Italia) were used. The animals were housed with free access to food and water and maintained on a forced 12-hour alternating light-dark cycle at 22-24° C. for at least one week, except during the experiment. The activity on rhythmic bladder voiding contractions was evaluated according to the method of Dray (Dray J., Pharmacol. Methods, 13:157, 1985), with some modifications as in Guarneri (Guarneri, Pharmacol. Res. 27:173, 1993). Briefly, rats were anaesthetised by subcutaneous injection of 1.25 g/kg (5 ml/kg) urethane, after which the urinary bladder was catheterised via the urethra using PE 50 polyethylene tubing filled with physiological saline. The catheter was tied in place with a ligature around the external urethral orifice and was connected to conventional pressure transducers (Statham P23 ID/P23 XL). […] The bladder was then filled via the recording catheter by incremental volumes of warm (37° C.) saline until reflex bladder-voiding contractions occurred (usually 0.8-1.5 ml). For intravenous injection of bioactive compounds, PE 50 polyethylene tubing filled with physiological saline was inserted into the jugular vein.
From the cystometrogram, the number of contractions recorded 15 minutes before (basal values) and after treatment, as well as the mean amplitude of these contractions (mean height of the peaks in mmHg), was evaluated.
Since most compounds produced an effect that was relatively rapid in onset and lead to a complete cessation of bladder contractions, bioactivity was conveniently estimated by measuring the duration of bladder quiescence (i.e., the length of the time during which no contractions occured). The number of tested animals showing a reduction in the number of contractions higher than 30% of that observed in the basal period was also recorded.
To compare the potency of the tested compounds for inhibiting the bladder voiding contractions, equieffective doses that result in the disappearance of contractions for a time of 10 minutes (ED10min) were computed by means of linear regression using the least square method. The extrapolated doses which induces a reduction in the number of contractions greater than 30% in 50% of the treated rats (ED50) was evaluated by the method of Bliss (Bliss C. I., Quart J. Pharm. Pharmacol. 11, 192-216, 1938).
Data represent the ED10min values (the extrapolated dose inducing 10 minutes of disappearance of the contractions), the ED50 (frequency) values (the extrapolated doses inducing a reduction of the number of contractions >30% in 50% of treated rats), and the ED50 (amplitude) values (the extrapolated doses inducing a 30% reduction of amplitude of the contractions in 50% of treated rats).

A further assay deals with T1, 5-HT1A receptors (Rattus norvegicus, UniProt P19327).
T1 construct: stereotyped forepaw treading induced in rats by subcutaneous injection of 8-OH-DPAT; from tissue; host or cells: whole animal (male Sprague-Dawley rats), endogenous post-synaptic receptors
T1 sequence (P19327 1-422): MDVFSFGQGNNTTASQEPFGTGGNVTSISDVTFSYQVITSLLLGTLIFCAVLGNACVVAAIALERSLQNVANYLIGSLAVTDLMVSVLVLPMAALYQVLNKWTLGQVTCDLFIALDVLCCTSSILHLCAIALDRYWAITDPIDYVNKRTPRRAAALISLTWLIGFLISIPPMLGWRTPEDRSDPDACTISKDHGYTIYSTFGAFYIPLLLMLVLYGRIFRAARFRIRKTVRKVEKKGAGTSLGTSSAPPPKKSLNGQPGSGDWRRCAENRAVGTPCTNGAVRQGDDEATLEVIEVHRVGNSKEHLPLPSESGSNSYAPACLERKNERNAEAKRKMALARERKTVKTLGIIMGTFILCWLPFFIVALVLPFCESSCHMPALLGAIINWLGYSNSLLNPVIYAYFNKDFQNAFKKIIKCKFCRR
The experiment in a line: Inhibition of stereotypy (rhythmic forepaw treading) induced by 8-OH-DPAT in rats (post-synaptic antagonism). It is filed as in vivo. As to conditions: for % Inhibition of forepaw treading, 1 h / % Inhibition of forepaw treading, 4 h: 10 mg/kg p.o.; for % Inhibition of forepaw treading, 1 h: given 1 h before 8-OH-DPAT (1 mg/kg s.c.); for % Inhibition of forepaw treading, 4 h: given 4 h before 8-OH-DPAT (1 mg/kg s.c.). On the procedure: The inhibitory effect of 5-HT1A-receptor antagonists on stereotyped forepaw treading induced in rats by subcutaneous injection of 8-OH-DPAT was evaluated by the method of Tricklebank (Tricklebank et al., Eur. J. Pharmacol., 117: 15, 1985) with minor modifications as described below.
Male Sprague-Dawley rats[Crl: CD® (SD) IGS BR] weighing 150-175 g from Charles River Italia were used. The animals were housed with free access to food and water and maintained on a forced 12-hour-light/12-hour-dark cycle at 22-24° C. of temperature. On the day of the experiment, the rats were placed singly in clear plastic containers, 10-15 minutes before administration of the vehicle or compounds to be tested. For evaluation of antagonistic activity after oral administration, the compounds were administered 1 and 4 hours before induction of stereotypy by 8-OH-DPAT (1 mg/kg subcutaneously). Observation sessions last 30 seconds and were begun 3 minutes after 8-OH-DPAT treatment and repeated every 3 minutes over a period of 15 minutes.
The appearance of the symptom induced by postsynaptic stimulation of 5-HT1A receptors was noted, and the intensity was scored using an intensity scale in which: 0=absent, 1=equivocal, 2=present and 3=intense. Behavioural scores for treated rats were accumulated throughout the observation time (5 observation periods) and expressed as mean values of 4 rats/dose. Change in mean values of treated animals in comparison with control (vehicle) group, expressed as per-cent inhibition, were used to quantify the antagonistic activity.

Assay [2] concerns the target T2, human 5-HT1A-serotonergic receptor (Homo sapiens, UniProt P08908).
T2 construct: expressed in transfected cells; host or cells: HeLa (human), stably transfected; membrane preparation
T2 sequence (P08908 1-422): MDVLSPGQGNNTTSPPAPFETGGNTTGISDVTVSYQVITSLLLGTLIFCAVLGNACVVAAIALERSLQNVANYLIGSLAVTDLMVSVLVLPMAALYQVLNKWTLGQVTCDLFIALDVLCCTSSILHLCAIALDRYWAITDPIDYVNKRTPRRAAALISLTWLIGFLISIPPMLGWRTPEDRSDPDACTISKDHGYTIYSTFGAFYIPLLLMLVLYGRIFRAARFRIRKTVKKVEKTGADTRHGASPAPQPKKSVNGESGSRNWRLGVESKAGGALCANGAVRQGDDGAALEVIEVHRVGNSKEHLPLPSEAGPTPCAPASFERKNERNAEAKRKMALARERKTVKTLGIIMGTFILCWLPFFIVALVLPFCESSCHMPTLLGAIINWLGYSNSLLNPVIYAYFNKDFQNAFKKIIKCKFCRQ
The experiment in a line: Radioligand binding to recombinant 5-HT1A receptors ([3H]8-OH-DPAT, HeLa cell membranes). Particulars: 1 nM [3H]8-OH-DPAT; Ki from IC50 by Cheng & Prusoff; read-out: Ki, binding affinity for 5-HT1A receptors. On the procedure: Genomic clone coding for the human 5-HT1A-serotonergic receptor was stably transfected in a human cell line (HeLa). HeLa cells were grown as monolayers in Dulbecco's modified Eagle medium (DMEM), containing 10% foetal bovine serum, gentamycin (0.1 mg/ml) and 5% carbon dioxide, at 37° C. The cells were detached from the growth flask at 95% confluence by a cell scraper and were lysed in cold 5 mM Tris and 5 mM EDTA buffer (pH 7.4). The homogenates were centrifuged at 40000×g×20 minutes and the pellets were resuspended in a small volume of cold 5 mM Tris and 5 mM EDTA buffer (pH 7.4) and immediately frozen and stored at −70° C. until use. On the day of experiment, the cell membranes were resuspended in incubation buffer: 50 mM Tris HCl (pH 7.4), 2.5 mM MgCl2, […] (Fargin et al., Nature 335, 358-360, 1988). The membranes were incubated in a final volume of 1 ml for 30 minutes at 30° C. with 1 nM [^3H]8-OH-DPAT, in the absence or presence of the test compounds. Non-specific binding was determined in the presence of 10 μM 5-HT. Incubation was stopped by addition of cold Tris-HC1 buffer and rapid filtration through a 0.2%-polyethyleneimine-pretreated Whatman-GF/B or Schleicher-&-Schuell-GF52 filter.
The affinities of the tested compounds were evaluated as inhibition of specific binding of the radioligand to 5-HT1A receptors (IC50) by using the non-linear curve-fitting program Allfit (De Lean et al., Am. J. Physiol. 235, E97-E102 (1978). The IC50 value was converted to an affinity constant (Ki) by the equation of Cheng & Prusoff (Cheng Y. C., Prusoff W. H., Biochem. Pharmacol. 22, 3099-3108 (1973)).

[3] abbreviates: urethane-anaesthetised female rats, read-out: ED50 (frequency) (extrapolated dose inducing a reduction of the number of contractions >30% in 50% of treated rats).
The mark [4] stands for this setting: urethane-anaesthetised female rats.

For the compound `CCN(CC)CC#CCOC(=O)C(O)(c1ccccc1)C1CCCCC1` (centres unmarked) [Oxybutynin], the ED50 (in general, the dose at which the effect has come halfway, by size or by number of responders) in assay [1] (setting [3]) is over 10 mg/kg; in assay [1] (n.a. = not active, no significant reduction of the height of the peaks, read-out: ED50 (amplitude) (extrapolated dose inducing a 30% reduction of amplitude of the contractions in 50% of treated rats)) it was 0.24 mg/kg. Also, in assay [1] (setting [4]), the “ED10 min (extrapolated dose inducing 10 minutes of disappearance of the contractions)” value (“ED10 min” below) was 7.77 mg/kg.

As to `CCNC(=O)O[C@@H](C1CCCCC1)[C@H](CCN1CCN(c2ccccc2OC)CC1)c1ccccc1F` (racemic) [Example 47, (RS,SR) 1-[4-Cyclohexyl-4-ethylaminocarbonyloxy-3-(2-fluorophenyl)butyl]-4-(2-methoxyphenyl)piperazine], at 5-HT1A receptors, the “% Inhibition of forepaw treading, 1 h” value was found to be 56% and the “% Inhibition of forepaw treading, 4 h” value is 58%. The Ki (commonly the equilibrium dissociation constant of an inhibitor or competing ligand from its target) in assay [2] stood at 0.85 nM.

Take `CC#CC(O)C(CCN1CCN(c2cccc3c2OCCO3)CC1)c1ccccc1` (centres unmarked) [Example 31, 1-[5-(2,3-Dihydro-1,4-benzodioxinyl)]-4-(4-hydroxy-3-phenylhept-5-ynyl)piperazine]: at 5-HT1A receptors, the “% Inhibition of forepaw treading, 1 h” value stood at 60% and the “% Inhibition of forepaw treading, 4 h” value is 18%. For the same compound, the Ki in assay [2] turned out to be 2.71 nM.

On to `CN1CC[C@]23c4c5ccc(O)c4O[C@H]2[C@@H](O)C=C[C@H]3[C@H]1C5` [Morphine], for which the ED50 in assay [1] (setting [3]) is 0.03 mg/kg. The “ED10 min” value in assay [1] (setting [4]) is 0.05 mg/kg.

`COc1cc(F)ccc1N1CCN(CCC(c2ccccc2)C(OC)C2CCCCC2)CC1` (centres unmarked) [Example 18, 1-(4-Cyclohexyl-4-methoxy-3-phenylbutyl)-4-(4-fluoro-2-methoxyphenyl)piperazine]: in assay [2], the Ki is 0.81 nM.

As for `COc1cc(F)ccc1N1CCN(CCC(c2ccccc2C#N)C(O)C2CCCCC2)CC1` (centres unmarked) [Example 16, 1-[3-(2-Cyanophenyl)-4-cyclohexyl-4-hydroxybutyl]-4-(4-fluoro-2-methoxyphenyl)piperazine], on 5-HT1A receptors, the “% Inhibition of forepaw treading, 1 h” value was 40% and the “% Inhibition of forepaw treading, 4 h” value is reported as 17%. The Ki in assay [2] came to 0.9 nM.

For the compound `COc1ccccc1N1CCN(CC[C@H](c2ccccc2F)[C@@H](OC(C)=O)C2CCCCC2)CC1` (racemic) [Example 45, (RS,SR) 1-[4-Acetoxy-4-cyclohexyl-3-(2-fluorophenyl)butyl]-4-(2-methoxyphenyl)piperazine], the ED50 in assay [1] (setting [3]) is 0.127 mg/kg. In addition, the “ED10 min” value in assay [1] (setting [4]) was 0.584 mg/kg. For the same compound, at 5-HT1A receptors, the “% Inhibition of forepaw treading, 1 h” value came to 100% and the “% Inhibition of forepaw treading, 4 h” value is reported as 81%. For the same compound, the “inhibition of stereotypy induced by 8-OH-DPAT (in words)” value at 5-HT1A receptors (oral administration) was “potent and long-lasting inhibition”. Besides, the Ki in assay [2] is 0.54 nM.

For the compound `COc1cc(F)ccc1N1CCN(CCC(c2ccccc2C(=O)N(C)C)C(O)C2CCCCC2)CC1` (centres unmarked) [Example 42, 1-[4-Cyclohexyl-3-(2-dimethylaminocarbonylphenyl)-4-hydroxybutyl]-4-(4-fluoro-2-methoxyphenyl)piperazine], the Ki in assay [2] was found to be 4.87 nM.

On to `COc1ccccc1N1CCN(CC[C@H](c2ccccc2F)[C@@H](OC(N)=O)C2CCCCC2)CC1` (racemic) [Example 48, (RS,SR) 1-[4-Aminocarbonyloxy-4-cyclohexyl-3-(2-fluorophenyl)butyl]-4-(2-methoxyphenyl)piperazine], for which, on 5-HT1A receptors, the “% Inhibition of forepaw treading, 1 h” value is 90% and the “% Inhibition of forepaw treading, 4 h” value was determined as 74%. Besides, the Ki in assay [2] worked out at 0.36 nM.

Regarding `CCCOC(C1CCCCC1)C(CCN1CCN(c2cccc3c2OCCO3)CC1)c1ccccc1` (centres unmarked) [Example 25, 1-(4-Cyclohexyl-3-phenyl-4-propoxybutyl)-4-[5-(2,3-dihydro-1,4-benzodioxinyl)]piperazine], in assay [2], the Ki is 1.18 nM.

Take `CCOC(C1CCCCC1)C(CCN1CCN(c2ccc(F)cc2OC)CC1)c1ccccc1` (centres unmarked) [Example 20, 1-(4-Cyclohexyl-4-ethoxy-3-phenylbutyl)-4-(4-fluoro-2-methoxyphenyl)piperazine]: the Ki in assay [2] was determined as 3.19 nM.

For `OCC(CCN1CCN(c2cccc3c2OCCO3)CC1)c1ccccc1` (centres unmarked) [Example 37, 1-[5-(2,3-dihydro-1,4-benzodioxinyl)]-4-(4-hydroxy-3-phenylbutyl]piperazine], the Ki in assay [2] was determined as 5.03 nM.

For the compound `CCCOC(CCC)C(CCN1CCN(c2cccc3c2OCCO3)CC1)c1ccccc1` (centres unmarked) [Example 12, 1-[5-(2,3-Dihydro-1,4-benzodioxinyl)]-4-[(4-propoxy-3-phenyl)heptyl]piperazine], the Ki in assay [2] was 3.01 nM.

(Values after patent US20040072839A1, “1-Phenylalkylpiperazines” (priority 2002, published 2004).)
